Test results: patent US20240318134A1, “IN VITRO GENERATION OF ORGANIZED 3D CELL STRUCTURES INCLUDING HEAD-TRUNK EMBRYO-LIKE STRUCTURES, USING EPIGENETIC REMODELING FACTORS-MICROFLUIDIC PLATFORM SUITABLE FOR THEIR GENERATION” (INSTITUT PASTEUR, priority 2021, published 2024)

Experiments:
Nanog = Nanog expression at D8 after a round of hypoSUMOylation followed by 5-azacytidine treatment; type: cell-based, mouse; conditions: 0.1 μM for 5 days after the first wave of hypoSUMOylation
[1] = test system: whole genome methylated CG fraction; assay: Genome-wide DNA methylation profiling (Methyl-seq) during the hypoSUMOylation protocol; type: cell-based, mouse; conditions: D1 to D10 of the hypoSUMOylation protocol
Experimental: DNA was extracted and purified from 2 million cells for each condition with the Quick-DNA Midiprep Plus Kit (Zymo Research D4075) following manufacturer's instructions. DNA was quantified with a NanoDrop ND-1000 (ThermoFisher Scientific). The NEBNext Enzymatic Methyl-seq Kit (New England Biolabs #E7120S) was used to prepare libraries for detection of 5-mC and 5-hmC. 200 ng of DNA from each sample were sheared to 275 bp fragments with an E220 Focused-ultrasonicator (Covaris) with the following settings: Duty Factor, 10%—Peak Incident Power, 175 W—Cycles per burst, 200—Duration, 100 sec. Fragment size was validated by a 4200 TapeStation System (Agilent Technologies). The NEBNext Enzymatic Methyl-seq Kit workflow was then followed, using the sodium hydroxide option for the denaturation step. The size distribution and concentration of the libraries was determined by TapeStation. The libraries were sequenced on an Illumina HiSeq4000 sequencer as paired-end 100 base reads following Illumina's instructions. […]
Methyl-seq data were processed with the Bismark pipeline^62 using bowtie2 aligner^64 with the default parameters. Biological triplicates were merged and CG sites with at least 5 reads were kept for downstream analyses. Methylated and unmethylated CG sites were counted within predetermined windows (bin or interval) and a binomial test was used to compare different timepoints or regions. […]

[2] = test system: global level of SUMOylation in mouse ESCs; assay: Immunoblots of SUMO1 and SUMO2/3 conjugates in treated ESCs; type: cell-based; conditions: D3 and D10, after first and second 48 h treatment; restored at D8 after withdrawal
Experimental: Cells were collected and directly lysed in Laemmli buffer (Bio-Rad #161-0747). Proteins were quantified using Pierce 660 nm Protein Assay (ThermoFisher Scientific #22662) according to manufacturer's instructions. Equal amounts of proteins were loaded on gels and good equilibration of the different samples was assessed by Ponceau staining after membrane transfer. Antibodies against SUMO1 (1:1000, Abcam #ab32058), Actin (1:4000, Sigma #A1978), SUMO2/3 (1:1000, Abcam #ab81371), Gapdh (1:1000, Cell Signaling #2118), Dnmt1 (1:1000, Abcam #ab13537), Dnmt3a (1:1000, Abcam #ab2850), Dnmt3b (1:1000, Abcam #ab2851), Tet2 (1:1000, Cell Signaling #36449S), Histone H3 (1:5000, Abcam #ab24834) were used according to standard protocols and suppliers' recommendations.

Dnmt3a = Dnmt3a gene expression upon ML-792 treatment (siSall4 experiment); type: cell-based, mouse; conditions: ML-792 treatment for 48 h; induction reduced by Sall4 knockdown
Experimental: (§1) cDNA was generated with a High-Capacity cDNA Reverse Transcription Kit (Applied Biosystems #4368814) from 500 ng to […] of total RNA purified by Trizol extraction. Quantitative real-time PCR analysis was performed with SYBR Green PCR master mix (Applied Biosystems #4309155) and the primer sets indicated in Supplementary Table 7 using cDNA or genomic DNA (local ChIP). Quantitative real-time PCR analysis was performed on a CFX96 Touch Real-Time PCR Detection System (Bio-Rad) or a QuantStudio 6 Flex Real-Time PCR System (Applied Biosystems).

mouse ESCs (ES R1 cells) = assay: Generating adherent spheroids from mouse ESCs by two 48 h rounds of SUMO E1 inhibitor followed by medium switch; type: cell-based; conditions: two rounds of 48 h treatment in serum+Lif, then switch to N2B27+Lif; ML-792 2.5 μM, TAK-981 0.1 μM
Experimental: • Using ML-792 as hypoSUMOylation agent (SUMO E1 enzyme inhibitor): ESCs (ES R1 cells-129X1×129S1—ATCC) were dissociated with Trypsin-EDTA and plated (2.5 million cells in 100 mm dish) in serum+Lif medium supplemented with 2.5 μM ML-792 (Takeda Pharmaceuticals International Co.). Medium was replaced the next day to refresh treatment. After 48 h of treatment, plates were rinsed twice with PBS then cells were allowed to recover in serum+Lif. 5 days after the end of the first round, cells were similarly counted and plated for a 2nd round of ML-792. After 48 h of treatment, plates were rinsed twice with PBS then cells were allowed to recover in N2B27+Lif medium. […] By contrast the following specific parameters are taken into consideration with TAK-981:
On Day 1: first round. 500 000 ES R1 cells were plated per well well of a gelatin-coated 6-well plate in 2 ml of serum+Lif medium, supplemented with 0.1 μM of TAK-981. On Day 2, medium was replaced (aspirated) to refresh treatment (2 mL of Serum+Lif medium, supplemented with 0.1 μM of TAK-981 were added). After 48 h of treatment, on Day 3, the medium was aspirated and wells were rinsed twice with PBS then cells were allowed to recover in 2 ml of added serum+Lif. 6 days after the end of the first round, cells were similarly counted and plated for a 2nd round of TAK-981 (for example starting on Day 9 from the start of first round). […]

[3] = test system: mouse ESC-derived spheroids; assay: Marker expression and cell types of spheroids prepared with SUMO E1 inhibitor; type: cell-based; conditions: spheroids prepared with TAK-981; same as with ML-792
Experimental: On Day 1: first round. 500 000 ES R1 cells were plated per well well of a gelatin-coated 6-well plate in 2 ml of serum+Lif medium, supplemented with 0.1 μM of TAK-981. On Day 2, medium was replaced (aspirated) to refresh treatment (2 mL of Serum+Lif medium, supplemented with 0.1 μM of TAK-981 were added). After 48 h of treatment, on Day 3, the medium was aspirated and wells were rinsed twice with PBS then cells were allowed to recover in 2 ml of added serum+Lif. 6 days after the end of the first round, cells were similarly counted and plated for a 2nd round of TAK-981 (for example starting on Day 9 from the start of first round). On Day 9, 500 000 ES R1 cells were seeded per well on a gelatin-coated 6-well plate in 2 mL of Serum+Lif medium, supplemented with 0.1 μM of TAK-981 On day 10, the medium was aspirated and 2 ml of serum+Lif medium were added, supplemented with 0.1 μM of TAK-981 After 48 h of treatment (on Day 11), the medium was aspirated and wells were rinsed twice with PBS then cells were allowed to recover in 2 ml of N2B27+Lif medium that were added. Culture was carried out in N2B27+Lif medium.
as §1

Compound | Nanog expression at D8 (Nanog) | whole genome methylated CG fraction [1] | level of SUMO conjugates (SUMO1, SUMO2/3 immunoblot) [2] | Dnmt3a expression (Dnmt3a) | formation of spheroid structures (mouse ESCs (ES R1 cells)) | emergence of EPI-L cell type [3] | emergence of ESC-L cell type [3] | emergence of XEN-L cell type [3] | pluripotency marker expression in spheroids [3]
Nc1ncn([C@@H]2O[C@H](CO)[C@@H](O)[C@H]2O)c(=O)n1 [5-azacytidine] | able to maintain a high level of Nanog | – | – | – | – | – | – | – | –
NS(=O)(=O)OC[C@H]1C[C@@H](Nc2ncncc2C(=O)c2ccn(Cc3cccc(Br)c3)n2)C[C@@H]1O [ML-792] | – | gradual increase of the methylated CG fraction from D1 to D10 | drop of SUMO conjugates at day 3 (D3) and D10 | induction of Dnmt3a | yielded large spheroid structures on adherent plates | – | – | – | –
Cc1sc(C(=O)c2cncnc2NC2C[C@H](COS(N)(=O)=O)[C@@H](C)C2)cc1[C@@H]1NCCc2ccc(Cl)cc21 (stereo partly shown) [TAK-981] | – | – | – | – | cells form three-dimensional adherent spheroids | Emergence of an EPI-L cell type expressing Pou3f1, Fgt5, Wnt3 | Emergence of an ESC-L cell type expressing Dppa3 | Emergence of a XEN-L cell type expressing Sox17, Gata4, Snail | Decrease of pluripotency markers Nanog, Essrb
